Among the data in ChEMBL document CHEMBL5537109, “Natural products as potential lead compounds to develop new antiviral drugs over the past decade” (Eur J Med Chem, 2023) are EC50, CC50 and IC50 values, retold here.

The test system of data set [1] is Human immunodeficiency virus 1. The experiment in a line: Antiviral activity against HIV-1 harboring reverse transcriptase infected in human MT4 cells assessed as reduction in virus-induced cytopathic effect. It is filed as functional, organism-based. The following applies: Human immunodeficiency virus 1, MT4.
Data set [2] has as its system RAW264.7. Description: Cytotoxicity against mouse RAW264.7 cells assessed as reduction in cell viability incubated for 24 hrs by CCK-8 method. It counts as functional. (Formazan colour is commonly taken as a measure of viable cells.)
Data set [3] relates to Human immunodeficiency virus 1. The experiment in a line: Anti-HIV activity against HIV-1 IIIB infected in human C8166 cells assessed as inhibition of virus-induced cytopathic effect by MTT assay. The following applies: Human immunodeficiency virus 1, IIIB. It is filed as functional, organism-based.
The nature of data set [4]: Cytotoxicity against human C8166 cells assessed as inhibition of cell growth incubated for 48 hrs by MTT assay. It counts as toxicity, cell-based.
Data set [5] in a line: Inhibition of Influenza A virus A/California/04/2009 (H1N1) N-terminal his tagged domain of PA endonuclease expressed in Escherichia coli BL21 (DE3) cells.
Data set [6] can be described thus: Cytotoxicity against MDCK cells assessed as inhibition of cell growth incubated for 48 hrs by MTT assay. It is filed as toxicity, cell-based, Canis lupus familiaris. The following applies: dog.
For data set [7], the system named is Influenza A virus. Description: Antiviral activity against influenza A virus A/Hong Kong/1/68 (HK1, H3N2) infected in dog MDCK cells assessed as cytopathic effect. It counts as functional, organism-based.
The subject of data set [8] is Influenza A virus. Description: Antiviral activity against influenza A virus H5N1 infected in dog MDCK cells assessed as viral growth inhibition. It counts as functional, organism-based.
Data set [9] relates to Influenza A virus. Description: Antiviral activity against influenza A virus H1N1(A/PR/8/34) infected in MDCK cells assessed as inhibition of cytopathic effect incubated for 48 hrs by MTT assay. It is filed as functional, organism-based.
Data set [10] has as its system Human immunodeficiency virus 1. Description: Antiviral activity against wild-type HIV-1 NL4-3 infected in human MT4 cells assessed as inhibition of viral growth by measuring reduction in p24 antigen level incubated for 3 to 7 days by ELISA analysis. It is filed as functional, organism-based. Particulars: Human immunodeficiency virus 1, NL4-3, MT4. A general note: In an ELISA, binding on a coated surface is turned into a signal by an enzyme label.

Data set [11] is described as follows: Cytotoxicity against human C8166 cells assessed as inhibition of cell growth by MTT assay. It is filed as toxicity, cell-based.
For data set [12], the system named is Human alphaherpesvirus 1. Description: Antiviral activity against HSV-1 assessed as inhibition of viral growth. It counts as functional, organism-based.
Data set [13] can be described thus: Cytotoxicity against African green monkey Vero cells assessed as reduction in cell viability measured after 72 hrs by MTT assay. It counts as toxicity, cell-based. Particulars: chlorocebus sabaeus.
Data set [14] concerns Human alphaherpesvirus 1. Description: Antiviral activity against HSV-1 KOS infected in African green monkey Vero cells assessed as reduction in virus induced cytopathogenicity by plaque reduction assay. It counts as functional, organism-based. Particulars: Human alphaherpesvirus 1, KOS. (In general: Protection from cytopathic effect is a common read-out in antiviral testing.)

The nature of data set [15]: Cytotoxicity against African green monkey Vero E6 cells assessed as reduction in cell growth incubated for 24 hrs by WST-8 assay. It counts as toxicity, cell-based, Vero C1008. Particulars: chlorocebus sabaeus.
Data set [16] concerns SARS-CoV-2. The experiment in a line: Antiviral activity against SARS-CoV-2 NVDBB-2220 infected in African green monkey Vero cells assessed as reduction in virus-induced cytopathic effect incubated for 5 days by microscopic analysis. It counts as functional, organism-based. Particulars: Severe acute respiratory syndrome coronavirus 2, NVDBB-2220, Vero, 120 h.
In data set [17] the test system is Huh-7. The experiment in a line: Cytotoxicity against human Huh-7 cells assessed as reduction in cell viability incubated for 72 hrs by MTT assay. It counts as functional.
A short description of data set [18]: Cytotoxicity against African green monkey Vero cells assessed as reduction in cell viability measured after 72 hrs by MTS assay. It is filed as toxicity, cell-based. Particulars: chlorocebus sabaeus.
Data set [19] has as its system SARS-CoV-2. The experiment in a line: Antiviral activity against SARS-CoV-2 infected in African green monkey Vero cells assessed as reduction in viral replication. The following applies: Severe acute respiratory syndrome coronavirus 2, Vero. It counts as functional, organism-based.
Data set [20] deals with HEK-293T. The experiment in a line: Cytotoxicity against human HEK293T cells assessed as cell growth inhibition measured after 72 hrs by MTT assay. It is filed as functional.

Numbered stars: 1 amine (or outer) side, 2 acyl side, 3 side chain; on linkers, the order of the positions; unused ones are H or OH. Bridge positions count the residues as written; N and C are the ends. Square brackets hold non-standard residues; d marks the D form. Peptide text beside a SMILES is read from it. X2 = CCCCCCCCC[C@@H](CCCC(=O)[*:1])O[*:2]; d(aThr) = C[C@@H](O)[C@@H](N)C(=O)O; aIle = CC[C@@H](C)[C@H](N)C(=O)O

For `C=C(C)[C@@]1(OC(=O)c2ccccc2)[C@H](OC(C)=O)[C@@H]2[C@H](OC(C)=O)[C@@]3(C)O[C@@]4([C@@H]3OC(C)=O)[C@@H](OC(=O)c3ccccc3)[C@@H](C)C[C@H]4[C@@]2(O)[C@H](C)[C@@H]1OC(C)=O`, in [1], the EC50 (usually the concentration at which the effect is half-maximal) was found to be 0.18 µM. The cytotoxic concentration (CC50) (commonly the concentration at which the toxic effect on the cells reaches its halfway point) in [2] was over 200 µM.

Consider `COc1cc(OC)c2c(c1OC)C[C@H]1NCCc3cc4c(c-2c31)OCO4`, for which, in data set [3], the EC50 worked out at 5.8 µM. Moreover, in data set [4], the CC50 at 48 h was 43.6 µM.

With `O=C(O[C@H]1[C@H](Oc2ccc(O)cc2C(=O)O)O[C@H](CO)[C@@H](O)[C@@H]1OC(=O)c1cc(O)c(O)c(O)c1)c1cc(O)c(O)c(O)c1`, the half-maximal inhibitory concentration (IC50) (commonly the point on the concentration scale where inhibition reaches its midpoint) in data set [5] turned out to be 30.7 µM; in [8], 24.6 µM. Besides, the half-maximal cytotoxic concentration (CC50) at 48 h in [6] is over 1000 µM. Besides, the values for the EC50 in data set [7] and in data set [9] were 28.2 µM and 30.7 µM, respectively.

As for `O=C1C=C2C[C@H](O[C@H]3C[C@@]45OC(=O)C=C4C[C@@H]3N3CCCC[C@H]35)[C@@H]3C[C@@]2(O1)[C@H]1CCCN31`, the EC50 in data set [10] came to 120 µM.

As to `C=C(C)[C@@]1(OC(C)=O)[C@H](OC(C)=O)[C@@H]2[C@H](OC(C)=O)[C@@]3(C)O[C@@]4([C@@H]3O)[C@@H](OC(=O)c3ccccc3)[C@@H](C)C[C@H]4[C@@]2(O)[C@H](C)[C@@H]1OC(=O)c1ccccc1`, the EC50 in [1] came to 0.21 µM. The CC50 in data set [2] was over 200 µM.

As for `C=C(C)[C@]12C[C@@H](COC(C)=O)[C@@]34OC5(O[C@@H]1[C@@H]3[C@@H]1O[C@]1(CO)[C@@H](O)[C@@]1(O)[C@H]4[C@H]([C@H](C)[C@@H]1OC(=O)c1ccccc1)[C@H](C)C[C@H](OC(=O)c1ccccc1)[C@H](OC(=O)c1ccccc1)CCC[C@H]5O)O2`, the concentration for a half-maximal effect (EC50) in [10] came out at 0.00025 µM.

Regarding `O=C1C=C2[C@H]3C=CC[C@]2(O1)[C@H]1CCCCN31`, in data set [10], the EC50 was 45 µM.

In the case of `O=C(OC[C@H]1O[C@@H](Oc2ccc(O)cc2C(=O)O)[C@H](O)[C@@H](OC(=O)c2cc(O)c(O)c(O)c2)[C@@H]1O)c1cc(O)c(O)c(O)c1`, the IC50 in data set [5] stood at 29.2 µM; in data set [8], 11.6 µM. Further, the CC50 at 48 h in [6] was 964 µM. Further, the figures for the EC50 in data set [7] and in data set [9] were 33.3 µM and 20.2 µM, respectively.

Regarding `C=C(C)[C@@]1(OC(=O)c2ccccc2)[C@H](OC(C)=O)[C@@H]2[C@H](OC(C)=O)[C@@]3(C)O[C@@]4([C@@H]3O)[C@@H](OC(=O)c3ccccc3)[C@@H](C)C[C@H]4[C@@]2(O)[C@H](C)[C@@H]1OC(C)=O`, the concentration giving a half-maximal response (EC50) in data set [1] stood at 0.095 µM. In addition, the CC50 in data set [2] was over 200 µM.

Take `C=CC(C)(C)c1cc2cc3c(c(CC=C(C)C)c2oc1=O)O[C@H](C(C)(C)O)C3`: in [11], the half-maximal cytotoxic concentration (CC50) is over 200 µM.

Take `CCCCCCCCC[C@H]1CCCC(=O)N[C@H]([C@@H](C)O)C(=O)N[C@H](C)C(=O)N2CCC[C@H]2C(=O)N[C@@H](CCC(N)=O)C(=O)N[C@H](Cc2ccc(O)cc2)C(=O)N[C@@H]([C@H](C)CC)C(=O)O1` ([d(aThr)][dA]PQ[dY][aIle]; linker N-C via X2): the EC50 in data set [12] was determined as 14 µM.

As for `COc1ccc2c(c1)N=C1c3cc(-c4nccc5c4[nH]c4cc(OC)ccc45)c(C)n3CCC12O` (racemic), in data set [13], the 50% cytotoxic concentration (CC50) at 72 h worked out at 74.2 µM. In addition, the EC50 in data set [14] amounted to 2.12 µM.

`O=C1c2c(O)cc(O)cc2O[C@H](c2cc(O)c(O)c(O)c2)[C@H]1O` [AMPELOPSIN]: in data set [15], the CC50 at 24 h is over 200 µM.

With `C=C1C(=O)O[C@@]23[C@H]1CC[C@@H](C)[C@@H]2CC[C@@]1(C)O[C@@H]31` [ARTEANNUIN B], the EC50 in data set [16] amounted to 10.3 µM.

Regarding `C[C@H]1[C@H](OC(=O)CCC(=O)O)O[C@@H]2O[C@@]3(C)CC[C@H]4[C@H](C)CC[C@@H]1[C@@]24OO3` [ARTESUNATE], in data set [16], the EC50 amounted to 13 µM.

Turning to `O=c1cc(-c2ccccc2)oc2cc(O)c(O)c(O)c12` [BAICALEIN], the half-maximal cytotoxic concentration (CC50) at 24 h in [15] was over 200 µM.

For `CC[C@H]1CN2CCc3cc(OC)c(OC)cc3[C@@H]2C[C@@H]1C[C@H]1NCCc2cc(O)c(OC)cc21` [CEPHAELINE], the half-maximal cytotoxic concentration (CC50) came to 3.03 µM in data set [17] and 2 µM in data set [20]. In [18], the half-maximal cytotoxic concentration (CC50) at 72 h turned out to be 46.3 µM. Besides, in data set [19], the concentration giving a half-maximal response (EC50) was 0.0123 µM.

With `CC[C@H]1CN2CCc3cc(OC)c(OC)cc3[C@@H]2C[C@@H]1C[C@H]1NCCc2cc(OC)c(OC)cc21` [EMETINE], the results for the CC50 in data set [17] and in [20] were 33.4 µM and 37.8 µM, respectively. Moreover, the CC50 at 72 h in [18] was 2.17 µM. In data set [19], the EC50 is 7.71 µM.

Take `O[C@H]1[C@H]2c3cc4c(cc3CN3CCC(=C[C@@H]1O)[C@H]23)OCO4` [LYCORINE]: the CC50 in data set [17] is 0.834 µM; in data set [20], 1.04 µM. Also, the CC50 at 72 h in data set [18] is over 1000 µM. The EC50 in data set [19] stood at 0.439 µM.

On to `O=c1c(O)c(-c2cc(O)c(O)c(O)c2)oc2cc(O)cc(O)c12` [MYRICETIN], for which the CC50 at 24 h in [15] was over 200 µM.
